# Assay results as given in patent US20080206761A1, “Ex Vivo Gene Expression in Whole Blood as a Model of Assessment of Individual Variation to Dietary Supplements” (priority 2005, published 2008).
# Test system: TNFSF15 mRNA
# Assay: TNFSF15 mRNA in whole blood after dietary component and heat-aggregated IgG stimulation
# Assay type: cell-based, human
# Procedure: The mRNA and cDNA were prepared from the whole blood that was exposed to the dietary components, as well as the whole blood which remained unexposed. In brief, home-made 96-well filterplates were placed over collection plates, and 150 μl 5 mM Tris, pH 7.4, was applied. Following centrifugation at 120×g for 1 min at 4° C., 50 μl of blood samples were applied to each well and immediately centrifuged at 120×g for 2 min at 4° C., followed by washing of each well with 300 μl PBS once with centrifugation at 2000×g for 5 min at 4° C. Then, 60 μl stock lysis buffer, containing for example 0.5% N-Lauroylsarcosine, 4×SSC, 10 mM Tris HCl, pH 7.4, 1 mM EDTA, 0.1% IGEPAL CA-630, and 1.791 M guanidine thiocyanate, supplemented with 1% 2-mercaptoethanol (Bio Rad, Hercules, Calif., USA), 0.5 mg/ml proteinase K (Pierce, Rockford, Ill., USA), 0.1 mg/ml salmon sperm DNA (5 Prime Eppendorf/Brinkmann, Westbury, N.Y., USA), 0.1 mg/ml E. coli tRNA (Sigma), a cocktail of 10 mM each of the specific reverse primers shown in Table 2, and standard RNA34 oligonucleotides, were applied to the filterplates, followed by incubation at 37° C. for 10 min. The filterplates were then placed over oligo(dT)-immobilized microplates (GenePlate, RNAture), and centrifuged at 2000×g for 5 min at 4° C. Following overnight storage at 4° C., the microplates were washed with 100 μl plain lysis buffer 3 times, followed by 150 μl of wash buffer (0.5 M NaCl, 10 mM Tris, pH 7.4, 1 mM EDTA) 3 times at 4° C. […] The Ct was determined by analytical software (SDS, ABI).
# In this embodiment, heparinized whole blood of two individuals was pre-incubated with various dietary supplements at 37° C. for 30 minutes (at the same blood concentrations as in Embodiment 2), then stimulated with 1.2 μL of heat-aggregated IgG. […] The level of TNFSF3 and TNFSF15 mRNA was then assessed using the method described in Embodiment 1, with the exception that SYBR Green PCR was used to quantitate the mRNA. […]
smiles,measurement,setting,value
"CC1=C(/C=C/C(C)=C/C=C/C(C)=C/CO)C(C)(C)CCC1 [VA, vitamin A]","effect on HAG-induced TNFSF15 expression, in words","FIG. 6, two cases, vitamin A 100 nmol/L",eliminated the effect on HAG in one case (case 1)
same,"baseline expression of TNFSF15, in words","FIG. 6, vitamin A 100 nmol/L",decreased the baseline expression of TNFSF-15
same,"effect on HAG-induced TNFSF15 expression, in words","FIG. 7 follow-up, seven cases overall, vitamin A only","exhibited an inhibitory action on HAG-induced TNFSF15 expression in case 1, and in two of seven cases overall"
